Measured values as given in ChEMBL document CHEMBL5154761, “Design, synthesis, and evaluation of 9-(pyrimidin-2-yl)-9H-carbazole derivatives disrupting mitochondrial homeostasis in human lung adenocarcinoma” (Eur J Med Chem, 2022).
Calls of active or inactive are those of the source. No cut-off for these calls is given here.

What was measured:
A549 [1] = assay: Cytotoxicity against human A549 cells assessed as cell growth inhibition incubated for 48 hrs by MTT assay; format: functional, cell-based; conditions: A549, 48 h
A549 [2] = assay: Cytotoxicity against human A549 cells assessed as cell growth inhibition at 10 uM incubated for 48 hrs by MTT assay relative to control; format: functional
A549 [3] = assay: Induction of cell cycle arrest in human A549 cells assessed as accumulation at G2/M phase at 10 uM incubated for 48 hrs by PI staining based flow cytometry analysis; format: functional

Structure (SMILES)	IC50 (A549 [1])	inhibition at 10 µM (A549 [2])	Activity (A549 [3])
COc1ccc(C(=O)c2cccc3c4ccccc4n(-c4ncccn4)c23)cc1OC	3.1 µM	50%	Active
O=C(OCc1ccccc1)c1cccc2c3ccccc3n(-c3ncccn3)c12	5.23 µM		Active
O=C(c1ccc(O)c(O)c1)c1cccc2c3ccccc3n(-c3ncccn3)c12	8.86 µM	50%	
